Values of other authors as cited in patent publication US20090105222A1, “PREVENTION AND TREATMENT OF […] DISORDERS, INCLUDING STRESS-RELATED DISORDERS” (Cypress Bioscience, Inc., priority 2002, published 2009).

Target: NMDA receptor
Conditions: reported in literature (Shuto et al.); read-out: IC50 value, NMDA receptor antagonistic properties

Structure (SMILES): CCN(CC)C(=O)C1(c2ccccc2)CC1CN (stereo not shown) [milnacipran]
- IC50: ~6.3 µM
